Measurements as given in US20020137929A1, “1 - (3-heterocyclylphenyl) isothiourea, -isourea, -guanidine and -amidine herbicidal agents” (Intellectual Property Department, BASF Aktiengesellschaft, priority 1998, published 2002).

Experiments:
CYPSE (Flatsedge) = experiment: Postemergence weed control under flooded paddy conditions; format: in vivo, Cyperus serotinus; conditions: postemergence weeds, rated 3 to 4 weeks after treatment
Procedure, shortened: (§1)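 Containers holding 3–5 cm weeds and rice at 1.5–2.5 leaves are flooded to 1.5–3 cm above soil. Compound in 50/50 v/v aqueous/acetone is then added directly to the water, about 0.0313–0.500 kg/ha. Plants are kept in the greenhouse and rated 0–9 visually at 3–4 weeks.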

CYPIR (Rice Flatsedge) = experiment: as above; format: in vivo, Cyperus iria; conditions: postemergence weeds, rated 3 to 4 weeks after treatment
Procedure, shortened: as §1

ECHCG (Barnyardgrass) [1] = experiment: Preemergence herbicidal evaluation; format: in vivo, Echinochloa crus-galli; conditions: preemergence, rated 4-5 weeks after treatment, 0-9 scale
Procedure, shortened: (§2)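 Rating at 4–5 wk post-spray on a 0–9 visual scale vs control. Application: aqueous acetone, ~0.0156–0.500 kg/ha, to soil surface after seeding, preemergence.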

ABUTH (Velvetleaf) [2] = experiment: Postemergence herbicidal evaluation; format: in vivo, Abutilon theophrasti; conditions: postemergence
Procedure, shortened: (§3)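 First, seedlings were raised for around two weeks. Next, test material in 50/50 acetone/water containing 0.5% TWEEN 20 was sprayed through a nozzle at 40 psi, equivalent to about 0.0156–0.500 kg/ha. Finally, after 4–5 weeks in the greenhouse, plants were rated 0–9.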

ORYSAT (Rice, Tebonnet) = experiment: Postemergence herbicidal evaluation; format: in vivo, Oryza sativa, (L.) Tebonnet; conditions: postemergence
Procedure, shortened: as §3

[3] = test system: IPOHE (Morningglory, Ivyleaf); experiment: Preemergence herbicidal evaluation; format: in vivo, Ipomoea hederacea; conditions: preemergence, rated 4-5 weeks after treatment, 0-9 scale
Procedure, shortened: as §2

[4] = test system: TRZAWR (Wheat, Winter, cv Riband); experiment: Preemergence herbicidal evaluation; format: in vivo, Triticum aestivum; conditions: preemergence, rated 4-5 weeks after treatment, 0-9 scale
Procedure, shortened: as §2

SETVI (Foxtail, Green) = experiment: Postemergence herbicidal evaluation; format: in vivo, Setaria viridis; conditions: postemergence
Procedure, shortened: as §3

ECHCG (Barnyardgrass) [5] = experiment: Postemergence herbicidal evaluation; format: in vivo, Echinochloa crus-galli; conditions: postemergence
Procedure, shortened: as §3

CASOB (Sicklepod) = experiment: Preemergence herbicidal evaluation; format: in vivo, Cassia obtusifolia; conditions: preemergence, rated 4-5 weeks after treatment, 0-9 scale
Procedure, shortened: as §2

[6] = test system: CHEAL (Lambsquarters, Common); experiment: Postemergence herbicidal evaluation; format: in vivo, Chenopodium album; conditions: postemergence
Procedure, shortened: as §3

[7] = test system: CHEAL (Lambsquarters, Common); experiment: Preemergence herbicidal evaluation; format: in vivo, Chenopodium album; conditions: preemergence, rated 4-5 weeks after treatment, 0-9 scale
Procedure, shortened: as §2

ZEAMX (Corn, Field) [8] = experiment: Postemergence herbicidal evaluation; format: in vivo, Zea mays; conditions: postemergence
Procedure, shortened: as §3

ZEAMX (Corn, Field) [9] = experiment: Preemergence herbicidal evaluation; format: in vivo, Zea mays; conditions: preemergence, rated 4-5 weeks after treatment, 0-9 scale
Procedure, shortened: as §2

[10] = test system: GLXMAW (Soybean, Williams); experiment: Preemergence herbicidal evaluation; format: in vivo, Glycine max, (L.) Merr. cv Williams; conditions: preemergence, rated 4-5 weeks after treatment, 0-9 scale
Procedure, shortened: as §2

[11] = test system: IPOHE (Morningglory, Ivyleaf); experiment: Postemergence herbicidal evaluation; format: in vivo, Ipomoea hederacea; conditions: postemergence
Procedure, shortened: as §3

ABUTH (Velvetleaf) [12] = experiment: Preemergence herbicidal evaluation; format: in vivo, Abutilon theophrasti; conditions: preemergence, rated 4-5 weeks after treatment, 0-9 scale
Procedure, shortened: as §2

## C#CCOC(=O)CC1SC(=Nc2cc(-n3c(=O)cc(C(F)(F)F)n(C)c3=O)c(F)cc2Cl)N(C)C1=O (stereo not shown) [Compound 90, 2-Propynyl 2-{{2-chloro-5-[3,6-dihydro-3-methyl-2,6-dioxo-4-(trifluoromethyl)-1(2H)-pyrimidinyl]-4-fluorophenyl}imino}-3-methyl-4-oxo-5-thiazolidineacetate]
CYPSE (Flatsedge); Rate 0.0313 kg/ha
  Herbicidal rating CYPSE: 0.0
CYPSE (Flatsedge); Rate 0.0625 kg/ha
  Herbicidal rating CYPSE: 0.0
CYPSE (Flatsedge); Rate 0.1250 kg/ha
  Herbicidal rating CYPSE: 0.0
CYPSE (Flatsedge); Rate 0.2500 kg/ha
  Herbicidal rating CYPSE: 3.0
CYPIR (Rice Flatsedge); Rate 0.0313 kg/ha
  Herbicidal rating CYPIR: 0.0
CYPIR (Rice Flatsedge); Rate 0.0625 kg/ha
  Herbicidal rating CYPIR: 0.0
CYPIR (Rice Flatsedge); Rate 0.1250 kg/ha
  Herbicidal rating CYPIR: 1.0
CYPIR (Rice Flatsedge); Rate 0.2500 kg/ha
  Herbicidal rating CYPIR: 3.0
ECHCG (Barnyardgrass) [1]; 0.0313 kg/ha
  ECHCG rating: 0.0
ECHCG (Barnyardgrass) [1]; 0.0625 kg/ha
  ECHCG rating: 0.0
ECHCG (Barnyardgrass) [1]; 0.1250 kg/ha
  ECHCG rating: 0.0
ECHCG (Barnyardgrass) [1]; 0.2500 kg/ha
  ECHCG rating: 3.0
ABUTH (Velvetleaf) [2]; rate 0.0158 kg/ha
  ABUTH herbicidal rating: 9.0
ABUTH (Velvetleaf) [2]; rate 0.0315 kg/ha
  ABUTH herbicidal rating: 9.0
ABUTH (Velvetleaf) [2]; rate 0.0630 kg/ha
  ABUTH herbicidal rating: 9.0
ORYSAT (Rice, Tebonnet); rate 0.0158 kg/ha
  ORYSAT herbicidal rating: 4.0
ORYSAT (Rice, Tebonnet); rate 0.0315 kg/ha
  ORYSAT herbicidal rating: 6.5
ORYSAT (Rice, Tebonnet); rate 0.0630 kg/ha
  ORYSAT herbicidal rating: 6.5
[3]; 0.0313 kg/ha
  IPOHE rating: 1.0
[3]; 0.0625 kg/ha
  IPOHE rating: 4.0
[3]; 0.1250 kg/ha
  IPOHE rating: 9.0
[3]; 0.2500 kg/ha
  IPOHE rating: 9.0
[4]; 0.0313 kg/ha
  TRZAWR rating: 0.0
[4]; 0.0625 kg/ha
  TRZAWR rating: 0.0
[4]; 0.1250 kg/ha
  TRZAWR rating: 2.0
[4]; 0.2500 kg/ha
  TRZAWR rating: 7.0
SETVI (Foxtail, Green); rate 0.0158 kg/ha
  SETVI herbicidal rating: 9.0
SETVI (Foxtail, Green); rate 0.0315 kg/ha
  SETVI herbicidal rating: 9.0
SETVI (Foxtail, Green); rate 0.0630 kg/ha
  SETVI herbicidal rating: 9.0
ECHCG (Barnyardgrass) [5]; rate 0.0158 kg/ha
  ECHCG herbicidal rating: 3.0
ECHCG (Barnyardgrass) [5]; rate 0.0315 kg/ha
  ECHCG herbicidal rating: 5.0
ECHCG (Barnyardgrass) [5]; rate 0.0630 kg/ha
  ECHCG herbicidal rating: 9.0
CASOB (Sicklepod); 0.0313 kg/ha
  CASOB rating: 3.0
CASOB (Sicklepod); 0.0625 kg/ha
  CASOB rating: 9.0
CASOB (Sicklepod); 0.1250 kg/ha
  CASOB rating: 9.0
CASOB (Sicklepod); 0.2500 kg/ha
  CASOB rating: 9.0
[6]; rate 0.0158 kg/ha
  CHEAL herbicidal rating: 5.0
[6]; rate 0.0315 kg/ha
  CHEAL herbicidal rating: 7.0
[6]; rate 0.0630 kg/ha
  CHEAL herbicidal rating: 9.0
[7]; 0.0313 kg/ha
  CHEAL rating: 7.0
[7]; 0.0625 kg/ha
  CHEAL rating: 9.0
[7]; 0.1250 kg/ha
  CHEAL rating: 9.0
[7]; 0.2500 kg/ha
  CHEAL rating: 9.0
ZEAMX (Corn, Field) [8]; rate 0.0158 kg/ha
  ZEAMX herbicidal rating: 8.0
ZEAMX (Corn, Field) [8]; rate 0.0315 kg/ha
  ZEAMX herbicidal rating: 8.5
ZEAMX (Corn, Field) [8]; rate 0.0630 kg/ha
  ZEAMX herbicidal rating: 9.0
ZEAMX (Corn, Field) [9]; 0.0313 kg/ha
  ZEAMX rating: 0.0
ZEAMX (Corn, Field) [9]; 0.0625 kg/ha
  ZEAMX rating: 0.0
ZEAMX (Corn, Field) [9]; 0.1250 kg/ha
  ZEAMX rating: 7.0
ZEAMX (Corn, Field) [9]; 0.2500 kg/ha
  ZEAMX rating: 8.0
[10]; 0.0313 kg/ha
  GLXMAW rating: 0.0
[10]; 0.0625 kg/ha
  GLXMAW rating: 2.0
[10]; 0.1250 kg/ha
  GLXMAW rating: 7.0
[10]; 0.2500 kg/ha
  GLXMAW rating: 9.0
[11]; rate 0.0158 kg/ha
  IPOHE herbicidal rating: 9.0
[11]; rate 0.0315 kg/ha
  IPOHE herbicidal rating: 9.0
[11]; rate 0.0630 kg/ha
  IPOHE herbicidal rating: 9.0
ABUTH (Velvetleaf) [12]; 0.0313 kg/ha
  ABUTH rating: 9.0
ABUTH (Velvetleaf) [12]; 0.0625 kg/ha
  ABUTH rating: 9.0
ABUTH (Velvetleaf) [12]; 0.1250 kg/ha
  ABUTH rating: 9.0
ABUTH (Velvetleaf) [12]; 0.2500 kg/ha
  ABUTH rating: 9.0
